# Experimental data from ChEMBL document CHEMBL3351580, “Pyrano-isochromanones as IL-6 inhibitors: synthesis, in vitro and in vivo antiarthritic activity” (J Med Chem, 2014).
# The source made the active and inactive calls. The rule behind the calls is not given here.
# Columns and labels:
# B-cell = test: Inhibition of LPS-induced cell proliferation of B cells (unknown origin) at 10 uM after 72 hrs by MTT assay; type: functional
# THP-1 [1] = test: Inhibition of LPS-induced nitric oxide production in human THP1 cells at 10 uM after 24 hrs by Griess assay; type: functional; conditions: THP-1, 24 h
# THP-1 [2] = test: Inhibition of LPS-induced IL6 production in human THP1 cells after 24 hrs; type: functional, cell-based; conditions: THP-1, 24 h
# [3] = Therapeutic index, ratio of cytotoxic IC50 for human THP1 cells by MTT assay to IC50 for inhibition of LPS-induced IL6 production in human THP1 cells; type: cell-based, THP-1; conditions: read-out: Ratio IC50
# Mus musculus [4] = test: Immunosuppressive activity in BALB/c mouse assessed as reduction in SRBC-induced humoral immunity by measuring IgG level at 3 to 30 mg/kg, po administered once daily for 14 days measured 4 hrs post last dose; type: functional, organism-based
# Mus musculus [5] = test: Antiarthritic activity in DBA/1J mouse collagen-induced arthritis model assessed as reduction in IL6 level at 3 to 30 mg/kg, po administered once daily for 49 days starting from onset of disease and measured after 3 to 49 days of disease onset by ELISA method; type: functional, organism-based
# Mus musculus [6] = test: Antiarthritic activity in DBA/1J mouse collagen-induced arthritis model assessed as reduction in anticollagen antibody IgG1 level at 3 to 30 mg/kg, po administered once daily for 49 days starting from onset of disease and measured after 14 days of disease onset by ELISA method; type: functional, organism-based
# Mus musculus [7] = test: Antiarthritic activity in DBA/1J mouse collagen-induced arthritis model assessed as reduction in TNFalpha level at 3 to 30 mg/kg, po administered once daily for 49 days starting from onset of disease and measured after 3 to 49 days of disease onset by ELISA method; type: functional, organism-based
# Mus musculus [8] = test: Antiarthritic activity in BALB/c mouse assessed as reduction in SRBC-induced blood IFNgamma level administered orally once daily for 14 days measured 4 hrs post last dose by ELISA method; type: functional, organism-based
# Mus musculus [9] = test: Antiarthritic activity in BALB/c mouse assessed as reduction in SRBC-induced blood IL4 level administered orally once daily for 14 days measured 4 hrs post last dose by ELISA method; type: functional, organism-based
# Mus musculus [10] = test: Antiarthritic activity in DBA/1J mouse collagen-induced arthritis model assessed as reduction in anticollagen antibody IgG1 level at 3 to 30 mg/kg, po administered once daily for 49 days starting from onset of disease and measured after 49 days of disease onset by ELISA method; type: functional, organism-based
# Mus musculus [11] = test: Antiinflammatory activity in BALB/c mouse assessed as serum TNFalpha level at 100 mg/kg, po qd for 5 days followed by LPS challenge 1 hr after last compound dose on fifth day and measured 4 hrs post LPS challenge by ELISA method (reference value: 717 +/- 218 pg/mL); type: functional
# [12] = Inhibition of concanavalin A-induced cell proliferation of T cells (unknown origin) at 10 uM after 72 hrs by MTT assay; type: functional
# THP-1 [13] = test: Cytotoxicity against human THP1 cells after 48 hrs by MTT assay; type: cell-based; conditions: THP-1, 48 h
# THP-1 [14] = test: Inhibition of NFkappaB p65/rel expression in human THP1 cells at 20 to 100 uM by Western blotting method; type: functional, cell-based
# Mus musculus [15] = test: Antiarthritic activity in DBA/1J mouse collagen-induced arthritis model assessed as reduction in paw swelling at 30 mg/kg, po administered once daily for 49 days starting from onset of disease; type: functional; conditions: 1176 h
# Mus musculus [16] = test: Antiinflammatory activity in BALB/c mouse assessed as serum nitric oxide level at 10 mg/kg, po qd for 5 days followed by LPS challenge 1 hr after last compound dose on fifth day and measured 4 hrs post LPS challenge by Griess assay (reference value: 6.95 +/- 1.81 uM); type: functional
# Mus musculus [17] = test: Antiarthritic activity in DBA/1J mouse collagen-induced arthritis model assessed as reduction in anticollagen antibody IgG2a level at 3 to 30 mg/kg, po administered once daily for 49 days starting from onset of disease and measured after 49 days of disease onset by ELISA method; type: functional, organism-based
# Mus musculus [18] = test: Antiinflammatory activity in BALB/c mouse assessed as serum nitric oxide level at 100 mg/kg, po qd for 5 days followed by LPS challenge 1 hr after last compound dose on fifth day and measured 4 hrs post LPS challenge by Griess assay (reference value: 6.95 +/- 1.81 uM); type: functional
# Mus musculus [19] = test: Antiarthritic activity in DBA/1J mouse collagen-induced arthritis model assessed as reduction in anticollagen antibody IgG2a level at 3 to 30 mg/kg, po administered once daily for 49 days starting from onset of disease and measured after 14 days of disease onset by ELISA method; type: functional, organism-based
# Mus musculus [20] = test: Antiarthritic activity in DBA/1J mouse collagen-induced arthritis model assessed as reduction in IL-1beta level at 3 to 30 mg/kg, po administered once daily for 49 days starting from onset of disease and measured after 3 to 49 days of disease onset by ELISA method; type: functional, organism-based
# [21] = Solubility in water; type: physicochemical
# THP-1 [22] = test: Inhibition of LPS-induced IL-1beta production in human THP1 cells at 10 uM after 24 hrs; type: functional; conditions: THP-1, 24 h
# THP-1 [23] = test: Cytotoxicity against human THP1 cells after 24 hrs by MTT assay; type: cell-based; conditions: THP-1, 24 h
# Mus musculus [24] = test: Antiinflammatory activity in BALB/c mouse assessed as serum IL6 level at 10 mg/kg, po qd for 5 days followed by LPS challenge 1 hr after last compound dose on fifth day and measured 4 hrs post LPS challenge by ELISA method (reference value: 410 +/- 95 pg/mL); type: functional
# Mus musculus [25] = test: Antiinflammatory activity in BALB/c mouse assessed as serum TNFalpha level at 10 mg/kg, po qd for 5 days followed by LPS challenge 1 hr after last compound dose on fifth day and measured 4 hrs post LPS challenge by ELISA method (reference value: 717 +/- 218 pg/mL); type: functional
# THP-1 [26] = test: Inhibition of NFkappaB expression in human THP1 cells up to 100 uM by Western blotting method; type: functional, cell-based
# THP-1 [27] = test: Inhibition of LPS-induced TNFalpha production in human THP1 cells after 24 hrs; type: functional, cell-based; conditions: THP-1, 24 h
# [28] = molecular target: Inhibitor of NF-kappa-B kinase (IKK) (Homo sapiens) (UniProt O14920+O15111+Q9Y6K9); test: Inhibition of IKKbeta expression in human THP1 cells at 20 to 100 uM by Western blotting method; type: functional, cell-based; conditions: THP-1
# Mus musculus [29] = test: Immunosuppressive activity in BALB/c mouse assessed as reduction in SRBC-induced DTH response at 3 to 30 mg/kg, po administered once daily for 14 days measured 4 hrs post last dose; type: functional, organism-based
# Mus musculus [30] = test: Immunosuppressive activity in BALB/c mouse assessed as reduction in SRBC-induced humoral immunity by measuring IgM level at 3 to 30 mg/kg, po administered once daily for 14 days measured 4 hrs post last dose; type: functional, organism-based
# Mus musculus [31] = test: Antiarthritic activity in BALB/c mouse assessed as reduction in SRBC-induced blood IL2 level administered orally once daily for 14 days measured 4 hrs post last dose by ELISA method; type: functional, organism-based
# Mus musculus [32] = test: Antiinflammatory activity in BALB/c mouse assessed as serum IL6 level at 100 mg/kg, po qd for 5 days followed by LPS challenge 1 hr after last compound dose on fifth day and measured 4 hrs post LPS challenge by ELISA method (reference value: 410 +/- 95 pg/mL); type: functional
# Mus musculus [33] = test: Antiarthritic activity in DBA/1J mouse collagen-induced arthritis model assessed as reduction in anticollagen antibody IgG2a level at 5 mg/kg, po administered once daily for 49 days starting from onset of disease and measured after 14 days of disease onset by ELISA method; type: functional, organism-based; parameters: dose 5 mg/kg
# Mus musculus [34] = test: Antiarthritic activity in DBA/1J mouse collagen-induced arthritis model assessed as reduction in IL6 level at 5 mg/kg, po administered once daily for 49 days starting from onset of disease and measured after 3 to 49 days of disease onset by ELISA method; type: functional, organism-based; parameters: dose 5 mg/kg
# Mus musculus [35] = test: Antiarthritic activity in DBA/1J mouse collagen-induced arthritis model assessed as reduction in TNFalpha level at 5 mg/kg, po administered once daily for 49 days starting from onset of disease and measured after 3 to 49 days of disease onset by ELISA method; type: functional, organism-based; parameters: dose 5 mg/kg
# Mus musculus [36] = test: Antiarthritic activity in DBA/1J mouse collagen-induced arthritis model assessed as reduction in IL-1beta level at 5 mg/kg, po administered once daily for 49 days starting from onset of disease and measured after 3 to 49 days of disease onset by ELISA method; type: functional, organism-based; parameters: dose 5 mg/kg
# Mus musculus [37] = test: Antiarthritic activity in DBA/1J mouse collagen-induced arthritis model assessed as reduction in anticollagen antibody IgG1 level at 5 mg/kg, po administered once daily for 49 days starting from onset of disease and measured after 49 days of disease onset by ELISA method; type: functional, organism-based; parameters: dose 5 mg/kg
# Mus musculus [38] = test: Antiarthritic activity in DBA/1J mouse collagen-induced arthritis model assessed as reduction in paw swelling at 5 mg/kg, po administered once daily for 49 days starting from onset of disease; type: functional; conditions: 1176 h
# Mus musculus [39] = test: Antiarthritic activity in DBA/1J mouse collagen-induced arthritis model assessed as reduction in anticollagen antibody IgG2a level at 5 mg/kg, po administered once daily for 49 days starting from onset of disease and measured after 49 days of disease onset by ELISA method; type: functional, organism-based; parameters: dose 5 mg/kg
# Mus musculus [40] = test: Antiarthritic activity in DBA/1J mouse collagen-induced arthritis model assessed as reduction in anticollagen antibody IgG1 level at 5 mg/kg, po administered once daily for 49 days starting from onset of disease and measured after 14 days of disease onset by ELISA method; type: functional, organism-based; parameters: dose 5 mg/kg
structure (smiles),measurement,setting,value
COc1c(O)cc2c(c1O)[C@@H]1O[C@H](CO)[C@@H](O)[C@H](O)[C@H]1OC2=O [BERGENIN],inhibition at 10 µM,B-cell,51.2%
same,inhibition at 10 µM,THP-1 [1],39%
same,IC50,THP-1 [2],0.208 µM
same,selectivity ratio,[3],> 400
same,inhibition,Mus musculus [4],Active
same,inhibition,Mus musculus [5],Active
same,inhibition,Mus musculus [6],Active
same,inhibition,Mus musculus [7],Active
same,inhibition,Mus musculus [8],Dose-dependent effect
same,inhibition,Mus musculus [9],Dose-dependent effect
same,inhibition,Mus musculus [10],Active
same,Activity,Mus musculus [11],509 pg/mL
same,inhibition at 10 µM,[12],54.8%
same,IC50,THP-1 [13],84 µM
same,inhibition,THP-1 [14],Active
same,inhibition in vivo at 30 mg/kg,Mus musculus [15],32%
same,Activity,Mus musculus [16],2.62 µM
same,inhibition,Mus musculus [17],Active
same,Activity,Mus musculus [18],3.29 µM
same,inhibition,Mus musculus [19],Active
same,inhibition,Mus musculus [20],Active
same,solubility,[21],> 1500 µg/mL
same,inhibition at 10 µM,THP-1 [22],24%
same,IC50,THP-1 [23],130 µM
same,Activity,Mus musculus [24],282 pg/mL
same,Activity,Mus musculus [25],667 pg/mL
same,inhibition,THP-1 [26],inactive
same,IC50,THP-1 [27],12.5 µM
same,inhibition,[28],Active
same,inhibition,Mus musculus [29],Active
same,inhibition,Mus musculus [30],Active
same,inhibition,Mus musculus [31],Dose-dependent effect
same,Activity,Mus musculus [32],55 pg/mL
C[C@H]1C[C@H]2[C@@H]3CCC4=CC(=O)C=C[C@]4(C)[C@@]3(F)[C@@H](O)C[C@]2(C)[C@@]1(O)C(=O)CO [BETAMETHASONE],inhibition at 10 µM,B-cell,28.1%
same,IC50,THP-1 [2],0.022 µM
same,inhibition,Mus musculus [33],Active
same,inhibition,Mus musculus [34],Active
same,inhibition,Mus musculus [35],Active
same,inhibition,Mus musculus [36],Active
same,inhibition at 10 µM,[12],42.6%
same,inhibition,Mus musculus [37],Active
same,IC50,THP-1 [27],0.013 µM
same,inhibition in vivo at 5 mg/kg,Mus musculus [38],46%
same,inhibition,Mus musculus [39],Active
same,inhibition,Mus musculus [40],Active
